One experiment relates to primary human microglia. Kind of experiment: qPCR of LPS-induced genes in primary human microglia. The class given is cell-based. The conditions noted are these: 1 μM for 1 hour, then 0.1 μg/ml LPS 6 hours; qPCR normalized against HPRT. How it is done: (§1) FIGS. 31A-F show indazol-estrogen suppression of the inflammation in human primary microglia and astrocytes. Primary human microglia (FIGS. 31A-C) and primary human atrocities (FIGS. 31D-E) were treated with Indazol-Estrogen-Bromide (Br), Indazol-Estrogen-Chloride (Cl), 17β-Estradiol (E2) or vehicle (ethanol:EtOH) for 1 hour followed by […] LPS stimulation for 6 hours (black column: 6 hr) or no LPS treatment (white column: Ohr). Normalized mRNA expression against HPRT of IL1β (FIG. 31A), IL23p19 (FIG. 31B), TGFβ (FIG. 31C) in microglia cells and BAFF (FIG. 31D), IL23p19 (FIG. 31E), iNOS (FIG. 31F) in astrocytes were determined using quantitative PCR. Primary human microglia and astrocytes were treated with 1 μM Indazol-Estrogen-Bromide (Br), 1 μM Indazol-Estrogen-Chloride (C1), 1 μM17β-Estradiol (E2) or vehicle (ethanol:EtOH) for 1 hour as a final concentration. Then microglia cells were stimulated with 0.1 μg/ml LPS and astrocytes were stimulated with 10 ng/ml IL1b for 6 hours. mRNA were purified and cDNA were generated by reverse transcriptase reaction. To determine the effect of ERβ-specific ligands in microglia and astrocytes-mediated inflammation, the activation of several genes induced by LPS in microglia or by IL1b in astrocytes were determined by QPCR normalized against HPRT.
(In general: Quantitative PCR measures a nucleic acid by following its amplification.)

The subject of a further experiment is primary human astrocytes. The experiment in a line: qPCR of IL1b-induced genes in primary human astrocytes. The class given is cell-based. The conditions noted are these: 1 μM for 1 hour, then 10 ng/ml IL1b 6 hours; qPCR normalized against HPRT. How it is done: as §1
Experiment [1] relates to SOD^G37R mutated astrocyte cultures. Kind of experiment: Detection of ROS production in SOD1 G37R astrocytes after anti-oxidant treatment. The class given is cell-based, human. The conditions noted are these: 48 hours treatment, vs vehicle (EtOH or DMSO); apocynin 300 μM, alpha lipoic acid 50 μg/mL, epicatechin 10 μM, luteolin 5 μM, resveratrol 5 μM. As for the experimental part: Primary astrocyte culture. Human primary astrocytes (HA1800) were obtained from ScienCell Research Laboratories™ (Carlsbad, Calif.) and were cultured according to the providers' guidelines. Briefly, the astrocytes were isolated from fetal human brain (cerebral cortex) and cultured for no more than 15 passages in astrocyte media (AM 1801). The infections were performed in 80% confluent T75 flasks followed by incubation with the lentivirus expressing either the wild type of SOD1 (LV-SOD1^wT) or the mutated form of SOD1 (LV-SOD1^G37R).
Detection of ROS production. Detection of total cellular ROS was performed using the Image-iT LIVE Green reactive Oxygen Species Detection Kit, according to the manufacturer's directions (Molecular Probes, Invitrogen). Briefly, this assay is based on the principle that the live cell permeable compound, carboxy-H2DCFDA, emits a bright green fluorescence when it is oxidized in the presence of ROS. The quantification of the ROS production was addressed in 2 ways: 1) counting the number of fluorescent cells and 2) measuring the intensity of the fluorescence emitted by the cells. The relative fluorescence intensity (arbitrary units ranging from 0 to 255, or black to white) was measured in randomly selected fields for each treatment and was analyzed and quantified using ImageProPlus software.
Anti-oxidants treatment. Anti-oxidants stock solutions were diluted in astrocyte media and directly applied to astrocyte monolayers. The cultures were treated for 48 hours prior to reactive species of oxygen (ROS) detection. The compounds used in the experiment were epicatechin (E4018 Sigma Aldrich, 10 μM), luteolin (L9283 Sigma-Aldrich, 5 μM), resveratrol (R5010Sigma-Aldrich, 5 μM), apocynin (178385 Calbiochem, 300 μM), alpha lipoic acid (T5625, Sigma-Aldrich, 50 μg/mL). For neuronal co-cultures, the astrocytes were pre-treated for 48 hours with apocynin and the rosettes were plated on top of them. The co-cultures were carried for 3 more weeks and the medium containing apocynin was replaced three more times during the co-culture period.
A total of five compounds and their respective vehicles (ethanol (EtOH) or DMSO) were tested in SOD^G37R mutated astrocyte cultures to address their anti-oxidant potential (FIG. 4A).

In experiment [2] the test system is HESC-derived motor neurons co-cultured with SOD1^G37R astrocytes. The experiment in a line: Co-culture of HESC-derived motor neurons with SOD1 astrocytes, quantification of ChAT-positive cells. The class given is cell-based, human. The conditions noted are these: astrocytes pre-treated 48 hours with apocynin, co-culture 3 more weeks. How it is done: Culture conditions and differentiation of HESC. The HUES cells lines used in this study were HUES9 (Douglas Melton-WiCell) and Cythera 203 (Novocell Inc. San Diego, Calif.). The HESC were differentiated in vitro in motor neurons, adapting the protocol previously described elsewhere (Li et al., 2005). Briefly, the cells were manually dissociated to form embryoid bodies (EBs) and cultured in suspension for 5-6 days. The EBs were then plated in laminin/poli-ornithin coated plates in the presence of a neural induction medium consisting of F12/DMEM (Invitrogen, Carlsbad, Calif.), N2 supplement and 1 μM retinoic acid (RA). The cells started to organize into neural tube-like rosettes and, after 7-8 days in culture, sonic hedgehog (SHH, 500 ng/ml, R&D Systems) and cAMP (1 μM) were added to the culture media for 1 more week. The rosettes were then manually selected using a 10× magnifier (Zeiss) and gently dissociated (by pipetting up and down in a Hanks' enzyme free cell dissociation buffer-Invitrogene). After dissociation, rosettes were pelleted at 1,000 rpm and re-plated either on laminin/poli-ornithine coated coverslips (for direct differentiation) or on top of astrocyte feeder layers for the co-culture experiments. […]

Molecules are shown by their SMILES. Entries after “also recorded” stand apart in the source; their conditions may differ.

Consider `Oc1ccc(-n2nc3ccc(O)cc3c2Cl)cc1` [Indazol-Cl], for which, in the experiment on primary human microglia, the “TGFβ mRNA” value is given as “do not repress”, the “induction of IL1β mRNA” value is given as “repress” and the “induction of IL23 (IL23p19) mRNA” value is “repress”. In the experiment with primary human astrocytes, the “BAFF mRNA” value is recorded as “repress”, the “IL23 (IL23p19) mRNA” value is listed as “repress” and the “iNOS mRNA” value is on record as “repress”.
Consider `C[C@]12CC[C@@H]3c4ccc(O)cc4CC[C@H]3[C@@H]1CC[C@@H]2O` [Estradiol, 17β-Estradiol], for which, in the experiment with primary human astrocytes, the “BAFF mRNA” value is on record as “not”, the “IL23 (IL23p19) mRNA” value was “not” and the “iNOS mRNA” value was “not”.
On to `COc1cc(C(C)=O)ccc1O` [apocynin], for which, in experiment [1], the “percentage of cells that were able to produce ROS (percentage of oxidation)” value (from here on “percentage of cells that were able”) is given as “decreased the percentage of cells that were able to produce ROS; also recorded: decreased the ROS production”. Further, the entries for the “motor neuron survival (ChAT-positive cells)” value in experiment [2] and in experiment [2] (listed as Apocynin) were “restored motor neuron survival; also recorded: recovery of motor neuron survival” and “rescued the motor neuron survival”, respectively.
Consider `O=c1cc(-c2ccc(O)c(O)c2)oc2cc(O)cc(O)c12` [luteolin], for which, in experiment [1], the “percentage of cells that were able” value was “did not seem to have a detectable effect”.
Regarding `O=C(O)CCCCC1CCSS1` (stereo not drawn) [alpha-lipoic acid, alpha lipoic acid], the “percentage of cells that were able” value in experiment [1] is “decreased the percentage of cells that were able to produce ROS”.
On to `Oc1ccc(-n2nc3ccc(O)cc3c2Br)cc1` [Indazol-Br], for which, in the experiment on primary human microglia, the “TGFβ mRNA” value was “do not repress”, the “induction of IL1β mRNA” value is given as “repress” and the “induction of IL23 (IL23p19) mRNA” value is on record as “repress”. In the experiment on primary human astrocytes, the “BAFF mRNA” value is reported as “repress”, the “IL23 (IL23p19) mRNA” value is recorded as “repress” and the “iNOS mRNA” value is on record as “repress”.
Turning to `Oc1ccc(C=Cc2cc(O)cc(O)c2)cc1` [resveratrol], the “percentage of cells that were able” value in experiment [1] was “did not seem to have a detectable effect”.

Values taken from patent US20120003655A1, “IDENTIFICATION OF NEUROPROTECTIVE AGENTS USING PRO-INFLAMMATORY HUMAN GLIAL CELLS” (The Salk Institute for Biological Studies, priority 2008, published 2012).
